# Read-outs that look alike come from different tables or passages of the source.
# Columns and labels:
# LAB [1] = assay: Incubation of individual ginsenosides with LAB (metabolic pathway); format: in vitro ADME; settings: individual ginsenoside 10 μM with LAB (1 billion CFU), 7 days; GF2 to CK, CK to PPD, GRg1 to GRh1; result in words
# Procedure: (§1) To identify the effects of LAB on ginsenoside metabolism, an in vitro fermentation study was performed according to the method of Jeon et al., with slight modifications. Briefly, RGE (10 mL, 1 pouch) and 2 g LAB (containing 1 billion CFU) were suspended in 10 mL autoclaved MRS broth (550 mg broth powder dissolved in 10 mL water). For the 15 ginsenosides, individual ginsenosides (10 μM each) and 2 g of LAB were suspended in 20 mL of autoclaved MRS broth (550 mg broth powder dissolved in 20 mL water). The mixture was incubated for 7 days in a shaking incubator at 37 °C and 300 rpm, and a 0.1 mL aliquot of the incubation mixture was collected on days 0, 3, 5, and 7. The incubation medium was diluted 100-fold with distilled water and stored at −80 °C to analyze ginsenosides using the LC-MS/MS system.
# (§2) To measure the metabolic activity of ginsenosides, the formation rate of ginsenosides (pmol/day) was calculated by dividing the slope of the regression line by the amount of deglycosylated ginsenosides versus the incubation time plot by the initial concentration of individual ginsenosides.
# LAB [2] = assay: In vitro RGE fermentation with LAB; format: in vitro ADME
# Procedure: as §1, §2
# [3] = Transport (permeability) of ginsenosides in CaCo-2 cell monolayers; format: in vitro ADME; settings: human
# Procedure: (§3) CaCo-2 cells (passage no 41–43) were seeded onto collagen-coated permeable support (1.0 μm pore size) in a 24-well plate at a density of 2.5 × 10^4 cells/insert and cultured for 21 days in Dulbecco’s modified eagle’s medium supplemented with 10% fetal bovine serum, 1% non-essential amino acids, and 1% penicillin-streptomycin at 37 °C in a humidified atmosphere (5% CO2/95% air). After confirming that the transepithelial electrical resistance (TEER) of the CaCo-2 cell monolayer was over 400 Ω·cm^2, Apical to basal (A to B) transport and B to A transport of ginsenosides using 50 µM, GRb1 was investigated as previously described. The same permeability study was performed using 50 µM GRb2, GRc, GRd, GRg3, GRh2, GF2, CK, PPD, GRe, GRf, GRg1, GRh1, GF1, or PPT.
# (§4) For the transport study of ginsenosides in CaCo-2 cells and LLC-PK1-P-gp cells, the ginsenoside transport rate in the A to B or B to A directions was calculated from the slope of the regression line from the mean transported amounts versus time plot. The apparent permeability (Papp) was calculated using Equation (1). (1) Papp (×10^−6 cm/s)=transport rate (nmol/min)/concentration(μM)×area(cm^2)×60s
# (§5) The efflux ratio was calculated by dividing the Papp of ginsenosides from the B to A direction by that from the A to B direction.
# P-gp = target: T1, P-gp (Homo sapiens, UniProt P08183); assay: Transport of ginsenosides in P-gp-overexpressing LLC-PK1-P-gp cells; format: in vitro ADME; settings: pig
# T1 construct: host or cells: LLC-PK1-P-gp cells (passage no. 25–28)
# T1 sequence (P08183 whole entry): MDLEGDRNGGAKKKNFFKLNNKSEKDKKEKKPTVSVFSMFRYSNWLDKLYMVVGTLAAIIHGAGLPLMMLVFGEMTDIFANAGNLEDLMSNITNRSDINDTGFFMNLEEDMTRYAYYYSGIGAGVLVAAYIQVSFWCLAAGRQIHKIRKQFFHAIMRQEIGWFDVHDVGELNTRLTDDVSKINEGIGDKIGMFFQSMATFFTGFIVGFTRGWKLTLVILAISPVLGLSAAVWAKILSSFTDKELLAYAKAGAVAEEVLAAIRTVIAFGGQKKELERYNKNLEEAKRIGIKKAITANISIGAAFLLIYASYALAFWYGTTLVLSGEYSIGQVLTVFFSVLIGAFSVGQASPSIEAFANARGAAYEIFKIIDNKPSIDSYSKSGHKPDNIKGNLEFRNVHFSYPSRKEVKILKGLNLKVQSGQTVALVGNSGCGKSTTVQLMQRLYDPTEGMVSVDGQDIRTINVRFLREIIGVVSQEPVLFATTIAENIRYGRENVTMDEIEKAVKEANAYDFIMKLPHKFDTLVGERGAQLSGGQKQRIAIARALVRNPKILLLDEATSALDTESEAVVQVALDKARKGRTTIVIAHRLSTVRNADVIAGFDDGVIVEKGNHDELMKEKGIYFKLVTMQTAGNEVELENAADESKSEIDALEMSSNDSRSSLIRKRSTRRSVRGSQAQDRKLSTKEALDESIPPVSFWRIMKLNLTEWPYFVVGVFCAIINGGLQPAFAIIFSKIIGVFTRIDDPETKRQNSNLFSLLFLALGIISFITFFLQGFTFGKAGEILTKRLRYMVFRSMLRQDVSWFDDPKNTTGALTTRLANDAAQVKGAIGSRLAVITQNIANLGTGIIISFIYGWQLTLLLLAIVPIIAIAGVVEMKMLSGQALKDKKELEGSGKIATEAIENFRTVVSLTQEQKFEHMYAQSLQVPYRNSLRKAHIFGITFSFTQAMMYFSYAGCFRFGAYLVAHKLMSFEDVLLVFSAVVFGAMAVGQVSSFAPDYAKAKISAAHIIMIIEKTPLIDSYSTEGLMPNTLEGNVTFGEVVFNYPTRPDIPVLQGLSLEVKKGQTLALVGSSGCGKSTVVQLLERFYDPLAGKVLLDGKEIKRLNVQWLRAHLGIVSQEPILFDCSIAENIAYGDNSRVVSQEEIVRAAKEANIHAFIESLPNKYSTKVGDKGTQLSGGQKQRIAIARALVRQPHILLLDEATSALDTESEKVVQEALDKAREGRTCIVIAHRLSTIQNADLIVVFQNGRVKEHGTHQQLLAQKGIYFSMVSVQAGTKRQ
# Procedure: (§6) LLC-PK1-P-gp cells (passage no. 25–28) were seeded onto collagen-coated permeable support (1.0 μm pore size) in 24-well plates at a density of 2.5 × 10^4 cells/insert and grown for 5 days with TEER values of over 500 Ω·cm^2 [24]. The A to B transport and B to A transport of GRg3, GRh2, CK, PPD, GRg1, GRh1, and PPT (20 μM each) were measured as previously described. The concentration dependency in the B to A transport of GRh2, CK, PPD, and PPT was measured in the range of 6.25–200 μM for GRh2, CK, PPD, and PPT.
# as §4, §5
# (§7) To measure the kinetic parameters of the concentration dependence on the P-gp-mediated ginsenoside efflux, the ginsenoside transport rate in the B to A direction (ν) versus the ginsenoside concentration (S) plot was fitted in the Michaelis–Menten Equation (2) using Sigma Plot (version 12.0, Systat Software Inc. Chicago, IL, USA). (2) ν=Vmax×S/Km+S
# [4] = Pharmacokinetic study of ginsenosides in healthy humans after repeated oral RGE with or without LAB; format: in vivo, human; settings: human, in vivo, po; for AUC: 104.1 mg
# Procedure: A single-sequence study consisting of two periods was conducted on five healthy male subjects (body weight > 50 kg and age > 19 years) for 29 days. During the first period of the study (RGE treatment group), three pouches of RGE (30 mL, 104.1 mg of total ginsenosides) were administered to 5 subjects once daily for 14 days. On the 14th day, the subjects were admitted to the Clinical Trial Center of KNUH at 7 AM and underwent the last RGE administration at approximately 8–9 AM. Blood samples (approximately 3 mL) were collected at 0, 4, 6, 8, 10, 12, 13, 14, and 24 h after the last dose. A saline-locked angiocatheter was placed on the forearm of each subject’s hand. After discarding 1 mL of blood derived from the catheter, 3 mL of blood was drawn into a vacutainer tube containing heparin and centrifuged at 3000× g for 10 min. The supernatant plasma samples were stored at −80 °C until ginsenoside analysis.
# In the second half of the study (RGE + LAB treatment group), 3 pouches of RGE (30 mL, 104.1 mg of total ginsenosides) and 1 pouch of LAB (1 billion CFU/2 g) were co-administered once daily for 14 days. On the […], the subjects were admitted to the Clinical Trial Center of KNUH at 7 AM and received the last red ginseng dose at approximately 8–9 AM. Blood samples (approximately 3 mL) were withdrawn at 0, 4, 6, 8, 10, 12, 13, 14, and 24 h intervals after the last dose and centrifuged at 3000× g for 10 min; the supernatant plasma samples were stored at −80 °C.
# Briefly, to analyze GRb1, GRb2, GRc, GRd, GRe, GRf, GRg1, GRg3, GF1, and GF2, 400 μL of an internal standard (IS; 0.05 ng/mL berberine in methanol) was added to 100 μL of plasma. The mixture was vortexed for 15 min and centrifuged at 16,000× g for 5 min. After centrifugation, 400 μL of the supernatant was evaporated using a speed-dry vacuum concentrator (Christ, Osterode am Harz, Germany). The residue was reconstituted using 200 μL of 70% methanol supplemented with 0.1% formic acid, and a 10 μL aliquot was injected into the LC-MS/MS system. Chromatographic separation was performed using a Polar RP column (150 × 2.0 mm, 4.0 μm particle size; Phenomenex, Torrance, CA, USA) using a mobile phase consisting of 0.1% formic acid in water (phase A) and 0.1% formic acid in methanol (phase B). The following elution gradient was used: 69% of phase B for 0–2.0 min, 69–85% of phase B for 2.0–4.0 min, and 85–69% of phase B for 6.0–6.5 min. The flow rate was 0.27 mL/min.
# The mixture was vortexed for 10 min and centrifuged at 16,000× g for 5 min. After centrifugation, the samples were frozen at −80 °C for 4 h. The upper layer was transferred to a clean tube and evaporated. The residue was reconstituted using 200 μL of 80% methanol supplemented with 0.1% formic acid, and a 10 μL aliquot was injected into the LC-MS/MS system. Chromatographic separation was performed using a Luna C18 column (150 × 2.0 mm, 3.0 μm particle size; Phenomenex, Torrance, CA, USA) and using a mobile phase consisting of water containing 0.1% formic acid: methanol containing 0.1% formic acid = 8:92 (v/v) at a flow rate of 0.15 mL/min.
# The quantification of ginsenosides was carried out using multiple reaction monitoring in positive ionization mode, as previously described.
# Finally, pharmacokinetic parameters were calculated using non-compartmental methods (WinNonlin version 5.1; Pharsight Co., Certara, NJ, USA). Statistical analysis was performed by Student’s t-test to compare the two groups using IBM SPSS Statistics for Windows (version 25.0; IBM Corp., Armonk, NY, USA). Differences were considered significant at p < 0.05.
# [5] = rat, in vivo, po; cited from earlier work
# CaCo-2 cells = assay: Transport (permeability) of ginsenosides in CaCo-2 cell monolayers; format: in vitro ADME; settings: Caco-2
# Procedure: as §3, §4, §5
# [6] = system: T2, CC(C)=CCCC(C)(OC1OC(CO)C(O)C(O)C1O)C1CCC2(C)C1C(O)CC1C3(C)CCC(O)C(C)(C)C3CCC12C; assay: Transport of ginsenosides in P-gp-overexpressing LLC-PK1-P-gp cells; format: in vitro ADME; settings: other: B to A transport rate in LLC-PK1-P-gp cells, 6.25–200 μM, Michaelis–Menten fit
# T2 construct: host or cells: LLC-PK1-P-gp cells (passage no. 25–28)
# Procedure: as §6, §4, §5, §7
# [7] = system: T3, [H][C@@]1(O[C@H]2CC[C@]3(C)[C@@]4([H])C[C@@H](O)[C@]5([H])[C@@]([H])([C@@](C)(O)CCC=C(C)C)CC[C@@]5(C)[C@]4(C)CC[C@@]3([H])C2(C)C)O[C@H](CO)[C@@H](O)[C@H](O)[C@H]1O; assay: as above; format: in vitro ADME; settings: other: B to A transport rate in LLC-PK1-P-gp cells, 6.25–200 μM, Michaelis–Menten fit
# T3 construct: host or cells: LLC-PK1-P-gp cells (passage no. 25–28)
# Procedure: as §6, §4, §5, §7
# [8] = system: T4, CC(C)=CCCC(C)(O)C1CCC2(C)C1C(O)CC1C3(C)CCC(O)C(C)(C)C3CCC12C; assay: as above; format: in vitro ADME; settings: other: B to A transport rate in LLC-PK1-P-gp cells, 6.25–200 μM, Michaelis–Menten fit
# T4 construct: host or cells: LLC-PK1-P-gp cells (passage no. 25–28)
# Procedure: as §6, §4, §5, §7
# [9] = system: T5, CC(C)=CCCC(C)(O)C1CCC2(C)C1C(O)CC1C3(C)CCC(O)C(C)(C)C3C(O)CC12C; assay: as above; format: in vitro ADME; settings: other: B to A transport rate in LLC-PK1-P-gp cells, 6.25–200 μM, Michaelis–Menten fit
# T5 construct: host or cells: LLC-PK1-P-gp cells (passage no. 25–28)
# Procedure: as §6, §4, §5, §7
# [10] = RGE incubated with LAB (1 billion CFU) for 7 days at 37 °C, result in words
compound,measurement,setting,value
CC(C)=CCCC(C)(OC1OC(CO)C(O)C(O)C1O)C1CCC2(C)C1C(O)CC1C3(C)CCC(OC4OC(CO)C(O)C(O)C4O)C(C)(C)C3CCC12C (stereo not drawn) [GF2],LAB-mediated deglycosylation (formation of deglycosylated ginsenoside from the incubated ginsenoside),LAB [1],negligible
same,Relative abundance / metabolic activity following fermentation of RGE with LAB,LAB [2]; [10],remained unchanged
same,Papp A→B at 50 µM,[3]; Caco-2,< 0.3 ×10⁻⁶ cm/s
CC(C)=CCCC(C)(OC1OC(CO)C(O)C(O)C1O)C1CCC2(C)C1C(O)CC1C3(C)CCC(O)C(C)(C)C3C(OC3OC(CO)C(O)C(O)C3O)CC12C (stereo not drawn) [GRg1],LAB-mediated deglycosylation (formation of deglycosylated ginsenoside from the incubated ginsenoside),LAB [1],the highest
same,efflux ratio at 20 μM,"P-gp; LLC-PK1, LLC-PK1-P-gp cells, 20 μM, B to A Papp divided by A to B Papp, read-out: ER",1
same,Papp A→B at 20 μM,"P-gp; LLC-PK1-P-gp cells, 20 μM, mean ± SD, n = 3, read-out: A to B permeability",0.1 ± 0.02 ×10⁻⁶ cm/s
same,Papp B→A at 20 μM,"P-gp; LLC-PK1-P-gp cells, 20 μM, mean ± SD, n = 3, read-out: B to A permeability",0.1 ± 0.03 ×10⁻⁶ cm/s
same,Relative abundance / metabolic activity following fermentation of RGE with LAB,LAB [2]; [10],marked decrease
same,Papp A→B at 50 µM,"[3]; CaCo-2 cell monolayers, 50 µM ginsenoside, read-out: A to B Papp",< 0.3 ×10⁻⁶ cm/s
"CC(C)=CCCC(C)(OC1OC(CO)C(O)C(O)C1O)C1CCC2(C)C1C(O)CC1C3(C)CCC(O)C(C)(C)C3CCC12C (stereo not drawn) [CK, compound K]",LAB-mediated deglycosylation (formation of deglycosylated ginsenoside from the incubated ginsenoside),LAB [1],the highest
same,Cmax,[4]; male,5.1 ± 2.2 ng/mL
same,AUC,[4]; male,57.9 ± 16.6 ng·h/mL
same,MRT,"[4]; male, MRT",17.2 ± 4.5 h
same,Tmax,"[4]; male, Tmax",8 ± 4 h
same,Papp A→B at 20 μM,P-gp; LLC-PK1,0.14 ×10⁻⁶ cm/s
same,Papp B→A at 20 μM,P-gp; LLC-PK1,8.25 ± 0.58 ×10⁻⁶ cm/s
same,CLint (intrinsic clearance),P-gp; llc-pk1,690 µL/min
same,Oral BA,[5],4.3%
CC(C)=CCC[C@](C)(O[C@@H]1O[C@H](CO)[C@@H](O)[C@H](O)[C@H]1O)[C@H]1CC[C@]2(C)[C@@H]1[C@H](O)C[C@@H]1[C@@]3(C)CC[C@H](O[C@@H]4O[C@H](CO)[C@@H](O)[C@H](O)[C@H]4O[C@@H]4O[C@H](CO)[C@@H](O)[C@H](O)[C@H]4O)C(C)(C)[C@@H]3CC[C@]12C [GRd],Cmax,[4],2.1 ± 0.9 ng/mL
same,MRT,[4],18.2 ± 1.4 h
same,Tmax,[4],7.5 ± 5.8 h
same,AUC,[4],37.9 ± 12.6 ng·h/mL
same,Relative abundance / metabolic activity following fermentation of RGE with LAB,LAB [2],marked decrease
same,A to B Papp,CaCo-2 cells,below 0.3 × 10^−6 cm/s
same,Oral bioavailability (BA),[5],less than 5%
P-gp (Homo sapiens),Km,[6],98 µM
same,Vmax,[6],67.7 nmol/min
same,Km,[7],151 µM
same,Vmax,[7],75.9 nmol/min
same,Km,[8],76 µM
same,Vmax,[8],0.40 nmol/min
same,Km,[9],83 µM
same,Vmax,[9],19.2 nmol/min
